Several values for one entry are separate records, joined by “and”; a condition that tells them apart may be missing. Equal entries are not always repeated. Numbers after ± are expanded uncertainties.
Experiment: molar heat capacity at constant pressure
Settings: 101.33 kPa, Quantum Design PPMS relaxation calorimeter

O=P([O-])([O-])OP(=O)([O-])[O-].[Fe+2].[Fe+2] [iron(II) pyrophosphate]
molar heat capacity at constant pressure
Settings	Crystal 1	Crystal 2
1 K	–	0.08666 ± 0.0091 J/K/mol
1.913 K	–	0.1778 ± 0.018 J/K/mol
2 K	–	0.1915 ± 0.02 J/K/mol
2.064 K	–	0.1986 ± 0.02 J/K/mol
2.26 K	–	0.2225 ± 0.022 J/K/mol
2.531 K	–	0.2638 ± 0.027 J/K/mol
2.801 K	–	0.3059 ± 0.031 J/K/mol
3 K	–	0.3363 ± 0.035 J/K/mol
3.099 K	–	0.357 ± 0.036 J/K/mol
3.44 K	–	0.423 ± 0.043 J/K/mol
3.822 K	–	0.5078 ± 0.051 J/K/mol
4 K	–	0.5546 ± 0.057 J/K/mol
4.26 K	–	0.6259 ± 0.063 J/K/mol
4.75 K	–	0.7875 ± 0.079 J/K/mol
5 K	–	0.8911 ± 0.091 J/K/mol
5.271 K	–	1.009 ± 0.1 J/K/mol
5.851 K	–	1.309 ± 0.13 J/K/mol
6 K	–	1.402 ± 0.14 J/K/mol
6.516 K	–	1.743 ± 0.17 J/K/mol
7 K	–	2.14 ± 0.22 J/K/mol
7.28 K	–	2.343 ± 0.23 J/K/mol
8 K	–	3.105 ± 0.32 J/K/mol
8.038 K	–	3.122 ± 0.31 J/K/mol
8.944 K	–	4.246 ± 0.43 J/K/mol
9 K	–	4.353 ± 0.44 J/K/mol
9.847 K	–	5.612 ± 0.56 J/K/mol
10 K	–	5.87 ± 0.14 J/K/mol
10.08 K	–	5.991 ± 0.6 J/K/mol
10.35 K	–	6.444 ± 0.65 J/K/mol
10.86 K	–	7.341 ± 0.73 J/K/mol
11 K	–	7.59 ± 0.19 J/K/mol
11.2 K	–	7.958 ± 0.8 J/K/mol
11.38 K	–	8.272 ± 0.83 J/K/mol
11.88 K	–	9.198 ± 0.92 J/K/mol
12 K	–	9.403 ± 0.23 J/K/mol
12.4 K	–	10.13 ± 1 J/K/mol
12.41 K	–	10.27 ± 1 J/K/mol
12.91 K	–	11.04 ± 1.1 J/K/mol
13 K	–	11.22 ± 0.27 J/K/mol
13.42 K	–	11.97 ± 1.2 J/K/mol
13.81 K	–	12.78 ± 1.3 J/K/mol
13.93 K	–	12.96 ± 1.3 J/K/mol
14 K	–	13.1 ± 0.32 J/K/mol
14.15 K	–	13.36 ± 1.3 J/K/mol
14.44 K	–	13.97 ± 1.4 J/K/mol
14.67 K	–	14.41 ± 1.4 J/K/mol
14.95 K	–	15.04 ± 1.5 J/K/mol
15 K	–	15.16 ± 0.37 J/K/mol
15.19 K	–	15.57 ± 1.6 J/K/mol
15.31 K	–	15.94 ± 1.6 J/K/mol
15.46 K	–	16.16 ± 1.6 J/K/mol
15.7 K	–	16.68 ± 1.7 J/K/mol
15.96 K	–	17.32 ± 1.7 J/K/mol
16 K	–	17.48 ± 0.42 J/K/mol
16.21 K	–	17.94 ± 1.8 J/K/mol
16.46 K	–	18.55 ± 1.9 J/K/mol
16.73 K	–	19.27 ± 1.9 J/K/mol
16.97 K	–	19.88 ± 2 J/K/mol
17 K	–	20.05 ± 0.48 J/K/mol
17.03 K	–	20.07 ± 2 J/K/mol
17.21 K	–	20.48 ± 2 J/K/mol
17.47 K	–	21.15 ± 2.1 J/K/mol
17.72 K	–	21.75 ± 2.2 J/K/mol
17.97 K	–	22.35 ± 2.2 J/K/mol
18 K	–	22.46 ± 0.54 J/K/mol
18.22 K	–	22.9 ± 2.3 J/K/mol
18.45 K	–	23.46 ± 2.3 J/K/mol
18.7 K	–	23.76 ± 2.4 J/K/mol
18.86 K	–	23.9 ± 2.4 J/K/mol
18.96 K	23.94 ± 2.4 J/K/mol and 23.94 ± 0.57 J/K/mol	23.94 ± 0.57 J/K/mol
19 K	23.61 ± 0.57 J/K/mol	–
19.22 K	23.87 ± 2.4 J/K/mol	–
19.47 K	23.67 ± 2.4 J/K/mol	–
19.72 K	23.25 ± 2.3 J/K/mol	–
19.96 K	22.81 ± 2.3 J/K/mol	–
20 K	22.76 ± 0.55 J/K/mol	–
20.21 K	22.3 ± 2.2 J/K/mol	–
20.45 K	21.81 ± 2.2 J/K/mol	–
20.7 K	21.41 ± 2.1 J/K/mol	–
20.95 K	21.05 ± 2.1 J/K/mol	–
21.21 K	20.68 ± 2.1 J/K/mol	–
21.46 K	20.31 ± 2 J/K/mol	–
21.71 K	20.15 ± 2 J/K/mol	–
21.96 K	20.02 ± 2 J/K/mol	–
22.21 K	19.89 ± 0.4 J/K/mol	–
22.47 K	19.76 ± 0.4 J/K/mol	–
22.74 K	19.73 ± 0.4 J/K/mol	–
22.99 K	19.67 ± 0.39 J/K/mol	–
23.23 K	19.65 ± 0.39 J/K/mol	–
23.29 K	19.66 ± 0.39 J/K/mol	–
23.48 K	19.65 ± 0.39 J/K/mol	–
23.52 K	19.74 ± 0.4 J/K/mol	–
23.7 K	19.62 ± 0.39 J/K/mol	–
23.73 K	19.62 ± 0.39 J/K/mol	–
23.9 K	19.67 ± 0.39 J/K/mol	–
23.98 K	19.66 ± 0.39 J/K/mol	–
24.1 K	19.7 ± 0.39 J/K/mol	–
24.3 K	19.72 ± 0.39 J/K/mol	–
24.47 K	19.77 ± 0.4 J/K/mol	–
24.66 K	19.78 ± 0.4 J/K/mol	–
24.86 K	19.85 ± 0.4 J/K/mol	–
25 K	19.89 ± 0.4 J/K/mol and 19.88 ± 0.48 J/K/mol	–
25.05 K	19.91 ± 0.4 J/K/mol	–
25.25 K	19.94 ± 0.4 J/K/mol	–
25.46 K	19.99 ± 0.4 J/K/mol	–
25.48 K	20.02 ± 0.4 J/K/mol	–
25.65 K	20.06 ± 0.4 J/K/mol	–
25.84 K	20.15 ± 0.4 J/K/mol	–
25.86 K	20.19 ± 0.4 J/K/mol	–
25.98 K	20.18 ± 0.4 J/K/mol	–
26.04 K	20.21 ± 0.4 J/K/mol	–
26.23 K	20.27 ± 0.41 J/K/mol	–
26.42 K	20.35 ± 0.41 J/K/mol	–
26.51 K	20.4 ± 0.41 J/K/mol	–
26.62 K	20.45 ± 0.41 J/K/mol	–
26.81 K	20.52 ± 0.41 J/K/mol	–
26.98 K	20.63 ± 0.41 J/K/mol	–
27 K	20.61 ± 0.41 J/K/mol	–
27.2 K	20.71 ± 0.41 J/K/mol	–
27.39 K	20.81 ± 0.42 J/K/mol	–
27.53 K	20.88 ± 0.42 J/K/mol	–
27.58 K	20.9 ± 0.42 J/K/mol	–
27.78 K	20.99 ± 0.42 J/K/mol	–
27.98 K	20.92 ± 0.42 J/K/mol	–
27.99 K	20.94 ± 0.42 J/K/mol	–
28.18 K	20.76 ± 0.41 J/K/mol	–
28.34 K	20.71 ± 0.41 J/K/mol	–
28.53 K	20.72 ± 0.41 J/K/mol	–
28.55 K	20.74 ± 0.41 J/K/mol	–
28.68 K	20.78 ± 0.42 J/K/mol	–
28.75 K	20.76 ± 0.41 J/K/mol	–
28.95 K	20.82 ± 0.42 J/K/mol	–
29.05 K	20.85 ± 0.42 J/K/mol	–
29.12 K	20.86 ± 0.42 J/K/mol	–
29.33 K	20.93 ± 0.42 J/K/mol	–
29.51 K	21.05 ± 0.42 J/K/mol	–
29.53 K	20.99 ± 0.42 J/K/mol	–
29.72 K	21.07 ± 0.42 J/K/mol	–
29.91 K	21.11 ± 0.42 J/K/mol	–
30 K	21.15 ± 0.51 J/K/mol	–
30.06 K	21.18 ± 0.42 J/K/mol	–
30.11 K	21.2 ± 0.42 J/K/mol	–
30.3 K	21.27 ± 0.42 J/K/mol	–
30.5 K	21.35 ± 0.43 J/K/mol	–
30.52 K	21.34 ± 0.43 J/K/mol	–
30.7 K	21.43 ± 0.43 J/K/mol	–
30.89 K	21.5 ± 0.43 J/K/mol	–
31.05 K	21.58 ± 0.43 J/K/mol	–
31.54 K	21.77 ± 0.43 J/K/mol	–
31.86 K	21.93 ± 0.44 J/K/mol	–
32.06 K	22.02 ± 0.44 J/K/mol	–
32.55 K	22.21 ± 0.44 J/K/mol	–
33.06 K	22.48 ± 0.45 J/K/mol	–
33.6 K	22.75 ± 0.46 J/K/mol	–
34.07 K	22.98 ± 0.46 J/K/mol	–
35 K	23.58 ± 0.57 J/K/mol	–
35.39 K	23.86 ± 0.48 J/K/mol	–
39.3 K	26.23 ± 0.53 J/K/mol	–
40 K	26.79 ± 0.64 J/K/mol	–
43.62 K	29.29 ± 0.59 J/K/mol	–
45 K	30.48 ± 0.73 J/K/mol	–
48.44 K	33.24 ± 0.67 J/K/mol	–
50 K	34.53 ± 0.83 J/K/mol	–
53.8 K	37.9 ± 0.76 J/K/mol	–
55 K	38.88 ± 0.93 J/K/mol	–
59.7 K	43.41 ± 0.87 J/K/mol	–
60 K	43.45 ± 1 J/K/mol	–
65 K	48.17 ± 1.2 J/K/mol	–
66.33 K	49.51 ± 0.99 J/K/mol	–
70 K	52.96 ± 1.2 J/K/mol	–
73.67 K	56.22 ± 1.1 J/K/mol	–
75 K	57.77 ± 1.3 J/K/mol	–
80 K	62.51 ± 1.4 J/K/mol	–
81.81 K	63.97 ± 1.3 J/K/mol	–
85 K	67.27 ± 1.5 J/K/mol	–
90 K	72.12 ± 1.6 J/K/mol	–
90.85 K	72.47 ± 1.4 J/K/mol	–
95 K	76.73 ± 1.7 J/K/mol	–
100 K	81.13 ± 1.8 J/K/mol	–
100.84 K	81.1 ± 1.6 J/K/mol	–
110 K	89.39 ± 2 J/K/mol	–
110.99 K	89.55 ± 1.8 J/K/mol	–
120 K	97.12 ± 2.1 J/K/mol	–
120.88 K	97.62 ± 2 J/K/mol	–
130 K	104.5 ± 2.3 J/K/mol	–
131.05 K	105.42 ± 2.1 J/K/mol	–
140 K	111.61 ± 2.5 J/K/mol	–
141.03 K	112.91 ± 2.3 J/K/mol	–
150 K	118.53 ± 2.6 J/K/mol	–
151.17 K	119.77 ± 2.4 J/K/mol	–
160 K	125.27 ± 2.8 J/K/mol	–
161.25 K	126.73 ± 2.5 J/K/mol	–
170 K	131.84 ± 2.9 J/K/mol	–
171.3 K	133.11 ± 2.7 J/K/mol	–
180 K	138.23 ± 3 J/K/mol	–
181.45 K	139.41 ± 2.8 J/K/mol	–
190 K	144.41 ± 3.2 J/K/mol	–
191.55 K	145.2 ± 2.9 J/K/mol	–
200 K	150.38 ± 3.3 J/K/mol	–
201.65 K	151.21 ± 3 J/K/mol	–
210 K	156.13 ± 3.4 J/K/mol	–
211.78 K	157.08 ± 3.1 J/K/mol	–
220 K	161.63 ± 3.6 J/K/mol	–
221.88 K	161.91 ± 3.2 J/K/mol	–
230 K	166.89 ± 3.7 J/K/mol	–
232.02 K	167.23 ± 3.3 J/K/mol	–
240 K	171.91 ± 3.8 J/K/mol	–
242.09 K	171.91 ± 3.4 J/K/mol	–
250 K	176.68 ± 3.9 J/K/mol	–
252.14 K	177.54 ± 3.5 J/K/mol	–
260 K	181.21 ± 4 J/K/mol	–
262.21 K	182.5 ± 3.6 J/K/mol	–
270 K	185.5 ± 4.1 J/K/mol	–
272.36 K	187.75 ± 3.8 J/K/mol	–
273.15 K	186.8 ± 4.1 J/K/mol	–
280 K	189.56 ± 4.2 J/K/mol	–
282.44 K	193.26 ± 3.9 J/K/mol	–
290 K	193.4 ± 4.2 J/K/mol	–
292.45 K	194.84 ± 3.9 J/K/mol	–
298.15 K	196.38 ± 4.3 J/K/mol	–
300 K	197.04 ± 4.3 J/K/mol	–
302.52 K	200.88 ± 4 J/K/mol	–

— the NIST ThermoML archive (doi:10.1016/j.jct.2013.02.001)
